The text below walks through data of US8318217B2, “Compositions comprising an anti-inflammatory blend” (Johnson & Johnson Consumer Companies, Inc., priority 2009, dated 2012).

In brackets after ≈: the same amount, converted by molar mass. Read-outs that look alike come from different tables or passages of the source.

Test [1] concerns NFκB. The test can be described thus: NFκB-INHIBITION TEST (NF-κB gene reporter, TNFα-stimulated FB293 cells). In kind it is cell-based, human. The following applies: for NF-κB Gene Reporter Activation (Luminescence, L): 24 h; for NF-κB inhibition (in words): summary of Table 1; for NF-KB Activity (10 ug/ml): Tables 3a and 3b. The method, then: As used herein, “NFκB-inhibitor” means a compound that inhibits the cell transcription factor nuclear kappa-B (NFκB). […] The compound need not provide the recited Percent NFκB Inhibition at all concentrations from 1 microgram per milliliter to 100 micrograms per milliliter, but provides the recited Percent NFκB Inhibition at least one concentration in this range.
The NFκB-INHIBITION TEST is conducted in the following manner. FB293 cells, a stable transfected human epithelial cell line containing the gene reporter for NF-κB are used. They may be obtained from, e.g., Panomics (Fremont, Calif.). FB293 are plated at a density of 5×10^4 cells/mL in a suitable medium, e.g., Dulbecco's modified Eagle's medium (DMEM) supplemented with 10% fetal bovine serum (Invitrogen, San Diego, Calif.). The FB293 cells are stimulated with 100 ng/mL of Tumor Necrosis Factor-α (TNFα, available from Sigma-Aldrich of St Louis, Mo.) in the presence of the test sample. Separately, a control sample is tested wherein no test sample is applied. Following a 24-hour incubation at 37° C. with 5% CO2, cells are lysed with 40 μl of reporter lysis buffer (Promega, Madison, Wis.). A 20-μl aliquot of the lysate is assayed using a luciferase assay kit (Promega) and counted for 10 s in a Lmax luminometer (Molecular Devices, Sunnyvale, Calif.) with the data represented as the relative light unit/second. Percent NFκB Inhibition of the test sample is calculated as: NFκB Inhibition=[1−(Lsample/Lcontrol)]*100 where Lsample is the luminescence of the sample and Lcontrol is the luminescence of the control.
The NFκB-INHIBITION TEST described above was performed on test samples of Bay 11-7082 (Sigma-Aldrich, St. Louis, Mo.), Tetrahydrocurcuminoids CG (Sabinsa Corporation, Piscataway, N.J.), as well as various concentrations of 4-hexylresorcinol.
The NFκB-INHIBITION TEST described above was performed on a series of substituted resorcinols each having a concentration of 10 μg/ml.

For test [2], the system named is IL-8. The test is described as follows: IL-8 ASSAY (IL-8 cytokine release in KB cells). The test is classed as cell-based, human. The method, then:
(§1) The IL-1α ASSAY was conducted as follows. KB cells were obtained from ATCC (ATCC#CCL-17, Manassas, Va.) and were plated in 96-well tissue culture treated plates at a density of 5000 cells/well in Dulbecco's modified Eagle's medium (DMEM) supplemented with 10% fetal bovine serum (Invitrogen Corp., San Diego, Calif.). After 48 hours, cells were treated with the agents described below at indicated concentrations for 24 hours, following which supernatants were collected and analyzed for IL-1α cytokine release using commercially available kits (Millipore Corp., Billerica, Mass.).
An IL-8 ASSAY was performed on a series of compositions using the method described in Example 5, except that the cytokine analyzed for was IL-8. Percent reduction in IL-8 was calculated for each sample. For samples containing a combination of an NF-κB inhibitor and an anti-inflammatory compound, the percent reduction in IL-8 relative to the percent reduction in IL-8 for the corresponding dose of anti-inflammatory compound is reported.

The subject of test [3] is IL-1α. The test can be described thus: IL-1α ASSAY (IL-1α cytokine release in KB cells). In kind it is cell-based, human. The settings on record: for Increase in IL-1α over untreated control (normalized): normalized to 4-hexylresorcinol 20 μg/mL. How it is done:
An IL-1α ASSAY was performed on a plurality of agents to investigate the release of the pro-inflammatory mediator, IL-1α cytokine, in human epithelial cells.
as §1
Further IL-1α ASSAYS as described in Example 5 were performed. For ease of comparison, reported increases in IL-1α for 4-hexylresorcinol, phloretin, and combinations thereof were normalized to 4-hexylresorcinol (20 μg/mL, Comparative Example 2). Reported increases in IL-1α for tetrahydrocurcuminoids, feverfew, and combinations thereof were normalized to tetrahydrocurcuminoids (20 μg/mL, Comparative Example 3).
Further IL-1α ASSAYS as described in Example 5 were performed. For ease of comparison, reported increases in IL-1α were normalized to 4-hexylresorcinol (20 μg/mL, Comparative Example 2).

Test [4] relates to Interleukin-2. The test is described as follows: ANTI-INFLAMMATORY ASSAY (cytokine production by PHA-stimulated human lymphocytes). The settings on record: PHA 10 μg/mL stimulated human leukocytes, 48 h. In kind it is cell-based. The method, then:
The ANTI-INFLAMMATORY ASSAY assesses the ability of an agent to reduce the production of cytokines by human lymphocytes stimulated with the T-cell receptor (TCR) activating agent phytohaemagglutinin (PHA), and is conducted in the following manner. Human leukocytes are collected from a healthy adult […] via leukopheresis, and adjusted to a density of 1×10^6 cells/mL in serum free lymphocyte growth medium (ExVivo-15, Biowhittaker, Walkersville, Md.). PBLs are stimulated with 10 μg/mL PHA in the presence or absence of test samples following published methods (Hamamoto Y., et al. Exp Dermatol 2:231-235, 1993). Following a 48-hour incubation at 37° C. with 5% CO2, the supernatant is removed and evaluated for cytokine content using commercially available multiplex cytokine detection kit.

Where [5] appears, read: Homo sapiens, read-out: Percent NF-κB Inhibition.
[6] abbreviates: Homo sapiens, 10 μg/ml, series of substituted resorcinols, Table 2, read-out: Percent NF-κB Inhibition.
[7] abbreviates: Homo sapiens, read-out: Percent NFκB Inhibition.

On to `CCCCCCCCCCCC1c2cc(c(O)cc2O)C(CCCCCCCCCCC)c2cc(c(O)cc2O)C(CCCCCCCCCCC)c2cc(c(O)cc2O)C(CCCCCCCCCCC)c2cc1c(O)cc2O` (stereo not shown) [C-Undecylcalix[4]-resorcinarene], for which the “Percent NF-κB Inhibition” value in test [1] (10 μg/ml, series of substituted resorcinols, Table 2) was determined as 4.87%.
As usually defined, the inhibition is the change of the read-out against control, counted positive when it falls. For the compound `CC1CCCC(O)CCCCCc2cc(O)cc(O)c2C(=O)O1` (stereo not drawn) [β-Zearalanol], the inhibition at 10 µg/mL in test [1] (setting [5]) came to 76.6%.
`CCCCCCCCCCCCc1ccc(O)cc1O` [4-Dodecylresorcinol]: in test [1] (setting [6]), the inhibition at 10 µg/mL is 20.9%.
As to `C[C@H]1CCC[C@@H](O)CCC/C=C/c2cc(O)cc(O)c2C(=O)O1` [β-Zearalenol], the inhibition at 10 µg/mL in test [1] (setting [5]) was 87.1%.
Take `O=C(O)/C=C/c1ccc(O)cc1O` [2,4-DIHYDROXYCINNAMIC Acid]: in test [1] (setting [6]), the inhibition at 10 µg/mL was -1.7%.
For `Oc1ccc(CCc2ccccc2)c(O)c1` [Phenethylresorinol], in test [1] (setting [6]), the inhibition at 10 µg/mL was 31.8%.
For the compound `O=Nc1ccc(O)c(N=O)c1O` [2,4-Dinitrosorcinol], the inhibition at 10 µg/mL in test [1] (setting [5]) turned out to be 51.8%.
Turning to `Oc1ccc(Cl)c(O)c1` [4-Chloroesorcinol], in test [1] (setting [6]), the inhibition at 10 µg/mL stood at 51.6%.
Same read-out and setting: then `CCC(=O)c1ccc(O)cc1O` [2′,4′-Dihydroxypropiophenone], with -0.7%.
Turning to `CCCCCC(=O)c1ccc(O)cc1O` [4-Caproylresorcinol], in test [1] (setting [6]), the inhibition at 10 µg/mL is 10.2%.
Take `COc1cccc(O)c1` [3-Methoxyphenol, reference compound]: in test [1] (setting [6]), the inhibition at 10 µg/mL was found to be 0%.
For the compound `COc1cccc(OC)c1` [1,3-Dimethoxybenzene, reference compound], the inhibition at 10 µg/mL in test [1] (setting [6]) is -1.7%.
As to `CCCCCCc1ccc(O)cc1O` [4-Hexylresorcinol], the “Mean of IL-8 Release” value in test [2] (single agent 10 μg/mL, untreated 84.46, Table 9) is 73.23 pg/mL; in test [2] (single agent 20 μg/mL, untreated 46.05, Table 8), 14.58 pg/mL; in test [2] (single agent 20 μg/mL, untreated 84.46, Table 9), 27.05 pg/mL. The “NF-κB Gene Reporter Activation (Luminescence, L)” value came to 106.1 ± 1.9 in test [1] (1 μg/ml, TNFα 100 ng/ml stimulated FB293 cells); 55.1 ± 1.7 in test [1] (5 μg/ml, TNFα 100 ng/ml stimulated FB293 cells); 29.3 ± 9.2 in test [1] (10 μg/ml, TNFα 100 ng/ml stimulated FB293 cells); 9.3 ± 0.9 in test [1] (50 μg/ml, TNFα 100 ng/ml stimulated FB293 cells, relative light unit/second per method). In addition, the inhibition at 10 µg/mL stood at 92.4% in test [1] (setting [5]) and 72.9% in test [1] (setting [7]). Further, the inhibition at 1 µg/mL in test [1] (setting [7]) amounted to 1.9%. Besides, in test [1] (setting [7]), the inhibition at 5 µg/mL turned out to be 50.9%. Moreover, in test [1] (setting [7]), the inhibition at 50 µg/mL is 91.4%. The “NF-κB inhibition (in words)” value in test [1] is “substantial reduction in NFκB activation”. Also, the “Mean of IL-1α Release” value in test [3] (20 μg/mL, 24 h, KB cells, untreated 0.72) was 21.34 pg/mL. Moreover, the “Increase in IL-1α over untreated control (normalized)” value (from here on “Increase in IL-1α … (normalized)”) in test [3] (single agent 20 μg/mL, Table 6) came out at 100; in test [3] (single agent 20 μg/mL, Table 7) it was 100. In addition, in test [3] (summary of Table 5), the “release of cytokine IL-1α (in words)” value is given as “can increase the release of cytokine IL-1α”.
For `CC1CCCC(=O)CCCCCc2cc(O)cc(O)c2C(=O)O1` (stereo not shown) [Zearalanone], the inhibition at 10 µg/mL in test [1] (setting [5]) is 51%.
In the case of `C=CC(C)(C)c1cc(/C=C/C(=O)c2ccc(O)cc2)c(OC)cc1O` [Licochalcone], the “Anti-Inflammatory Activity (IC50 ug/ml)” value in test [4] amounted to 54.1 µg/mL. For the same compound, in test [1], the “NF-KB Activity (10 ug/ml)” value is reported as 0%.
With `O=C(CCc1ccc(O)cc1)c1c(O)cc(O)cc1O` [Phloretin], the IC50 in test [4] (Leukocyte, read-out: Anti-Inflammatory Activity (IC50 ug/ml)) is 19.9 µg/mL (≈ 72.6 µM). The “NF-KB Activity (10 ug/ml)” value in test [1] is given as 0%. The “Increase in IL-1α … (normalized)” value is 3.82 in test [3] (single agent 10 μg/mL, Table 6); 2.39 in test [3] (single agent 50 μg/mL, Table 6); 3.34 in test [3] (single agent 100 μg/mL, Table 6).
On to `CCCCCCCCc1ccc(O)cc1O` [4-Octylresorcinol], for which, in test [1] (setting [6]), the inhibition at 10 µg/mL is 99.5%.
`Cc1ccc(S(=O)(=O)/C=C/C#N)cc1` [Bay 11-7082, (E)-3-(4-methylphenylsulfonyl)-2-propenenitrile, reference compound]: in test [1] (25 uM, FB293 cells), the “NF-κB Gene Reporter Activation (Luminescence, L)” value is 11.3 ± 5.6. Further, the inhibition at 25 µM in test [1] (Homo sapiens, 25 uM, Table 1, read-out: Percent NFκB Inhibition) came out at 89.5%. The “NF-κB inhibition (in words)” value in test [1] was “strong NF-κB inhibition”.
As for Madecassoside [reference compound], the “Anti-Inflammatory Activity (IC50 ug/ml)” value in test [4] stood at 77.3 µg/mL. The “NF-KB Activity (10 ug/ml)” value in test [1] amounted to 0%. For the same compound, the “Increase in IL-1α … (normalized)” value in test [3] (single agent 10 μg/mL, Table 7) was 43.02; in test [3] (single agent 50 μg/mL, Table 7) it was 41.59; in test [3] (single agent 100 μg/mL, Table 7) it was 44.24.
